{"source": "paper PMC5384962", "about": "“First-in-human studies of seletalisib, an orally bioavailable small-molecule PI3Kδ inhibitor for the treatment of immune and inflammatory diseases” (European Journal of Clinical Pharmacology, 2017)", "key": {"[1]": {"test": "Study-2 multiple-dose day 14 pharmacokinetics (plasma)", "format": "in vivo, human", "conditions": "for CLss/F / Cmaxss / Vzss/F / AUC(0-t) / MRT / half-life / LF: geo mean (GeoCV%); for AUC(0-t) / MRT / half-life / Tmax: human, plasma, oral; for LF: linearity factor AUC(0–24)ss/AUC", "excerpt": "These were phase I, randomised, double-blind, placebo-controlled studies designed to evaluate the safety, tolerability, PK and PD profiles of seletalisib following oral administration of single ascending doses and multiple ascending doses. Study-1 was a first-in-human, double-blind (sponsor-, investigator- and subject-blind) study that had two parts: Part-A evaluated seletalisib (single ascending doses) in healthy adults (including evaluation of food effects; Table 1); Part-B evaluated seletalisib (multiple ascending doses) in healthy adults and subjects with mild-to-moderate psoriasis. Study-2 was also a double-blind study of seletalisib (single and multiple ascending doses) in healthy subjects, which investigated higher doses.\nPlasma concentrations of seletalisib were measured by high-performance liquid chromatography with tandem mass spectrometry (see Online Resource S1 for further details). The following PK parameters were determined in each study: AUC for seletalisib, maximum observed plasma concentration of seletalisib after a single dose (Cmax) and at steady-state (Cmaxss), time of occurrence of Cmax (tmax, obtained directly from the observed plasma concentration-time curves), minimum observed plasma concentration of seletalisib at steady-state immediately before the next dose would be administered (Ctrough), apparent terminal half-life, apparent volume of distribution after single dosing (Vz/F) and at steady-state (Vzss/F) and apparent total body clearance after single dosing (CL/F) and at steady-state (CLss/F). Accumulation factor based on AUC(0–24) [R(AUC)] and accumulation factor based on Cmax [R(Cmax)] were determined on multiple dose day 14. The following study-specific PK parameters were also determined: Study-1, total amount of seletalisib excreted in urine (Ae), renal clearance (CLr) and fraction of drug excreted in urine; Study-2, AUC(0–10) in BID dose groups, terminal elimination rate constant in plasma (λz), mean residence time (MRT) and linearity factor (LF [AUC(0–24)ss/AUC]).\nMethods for the calculation of seletalisib PK parameters are detailed in Online Resource S1.\nSeletalisib PK parameters were calculated via non-compartmental analysis methods from the individual concentration-time data using Phoenix WinNonlin version 6.2 (Certara, Princeton, NJ, USA). Urine (Study-1 only) and plasma PK parameters of seletalisib were reported for each subject and summarised by study part and dose group. Geometric mean and percentage geometric coefficient of variation (GeoCV%) were reported for all parameters except for tmax, which was reported using median and range. Dose proportionality for AUC and Cmax at Day_1 (Study-1 [Part-A & Part-B]; Study-2, single ascending dose-Day_1) and at steady state at Day_14 (Study-1 [Part-B]; Study-2, multiple ascending dose-Day_14) was examined via the power model and reported graphically. In Study-1, an assessment of food effect (fed versus fasted) was made for Cmax and AUC from the data for subjects who received the same dose in fed and fasted states in Part-A."}, "[2]": {"test": "Study-1 Part-B safety/tolerability (adverse events, laboratory, OGTT), multiple doses", "conditions": "for Deaths: Study-1 multiple doses", "description": "In Study-1 (Part-B), a total of 27 subjects were enrolled, two cohorts of healthy subjects (n = 9 in each) and one cohort of subjects with mild-to-moderate psoriasis (n = 9). Subjects were randomised (2:1) to ascending multiple doses of seletalisib (5, 8 and 15 mg) or placebo for 14 days.\nAdverse events (AEs), serious AEs (SAEs), routine clinical laboratory parameters, vital signs and ECGs were monitored throughout the study periods and for ≤7 days post-administration of final-dose of seletalisib/placebo. The potential for seletalisib to cause gastrointestinal (GI) tract adverse effects was assessed by careful monitoring of subject reports of AEs such as abdominal pain, bloating, nausea, vomiting and alteration of bowel function (e.g. diarrhoea, constipation or bleeding). A formal safety review was conducted before each dose escalation. In Study-1 (Part-B), the potential for seletalisib to interfere with insulin signalling was assessed by monitoring blood glucose and C-peptide levels as part of the standard laboratory tests and by performance of oral glucose tolerance tests, measuring glucose and C-peptide levels, pre-dose and during exposure in all cohorts.\nIn each study, the primary population for analysis was the full analysis set (FAS), which comprised all subjects who had received ≥1 dose of seletalisib or placebo. PK analysis was performed on the PK per-protocol set (PK-PPS), which was a subset of the FAS consisting of subjects with no important protocol deviations likely to affect PK variables who received seletalisib; subjects who received placebo were excluded from this analysis. In Study-1 and Study-2, sample sizes of 57 and 36 subjects, respectively, were considered sufficient to permit assessment of the safety and tolerability of seletalisib and were not based on statistical considerations of power and sample size. In Study-1 (Part-A), a panel size of 15 subjects was selected to achieve good estimates of the PK/PD parameters."}, "[3]": {"set-up": "method as in ref 15 = [15]; 15. UCB data on file: UCB1446368-in vivo-rep; November 2011; UCB BioPharma sprl Belgium and DMPK10_062 UCB1446368 iv 1mpk male HW rat BDC; August 2010; UCB BioPharma sprl Belgium", "conditions": "preclinical animal studies; cited from earlier work"}, "[4]": {"tested_on": "basophil degranulation", "test": "Study-2 ex vivo basophil degranulation (anti-FcεR1-driven CD63 expression, whole blood)", "conditions": "Study-2, single dose, by 4 h post-dose on day 1, range across groups", "procedure": "Subjects were assessed for basophil degranulation following stimulation at multiple time points, as described in Online Resource S1.\nDegranulation of basophils was determined in whole blood by monitoring increased cell surface CD63 expression utilizing flow cytometry in an ex vivo stimulation assay driven by anti-IgE (Study-1) or anti-FcεR1 (Study-2). Briefly, blood was collected in lithium-heparin tubes (BD Biosciences, Oxford, UK) and stimulated with IgE or FcεRI cross-linking antibodies (eBiosciences, Hatfield, UK) for 12 min at 37°C. Following red blood cell lysis by addition of BD FACSlyse (BD Biosciences, Oxford, UK), samples were centrifuged and the supernatant discarded. The cell pellet was washed in PBS and re-suspended in fixative (5% formaldehyde in PBS). CD63 expression was determined on basophils (side-scatter low, CD123+HLA-DR-) and detected by flow cytometry using the BD antibody cocktail containing CD63, CD123, and anti-HLA-DR."}, "[5]": {"conditions": "power model, Study-2 multiple-dose Day 14, QD groups"}}, "note": "Like-named read-outs stand apart in the source and are kept apart here.", "data": [{"smiles": "[O-][n+]1cccc(-c2nc3c(Cl)cccc3cc2[C@@H](Nc2ncnc3cccnc23)C(F)(F)F)c1", "note": "[Seletalisib, seletalisib]", "values": [{"measurement": "CLss/F", "setting": "[1]; Study-2, 30 mg QD, Day 14", "result": "2.13 (39.1) L/h"}, {"measurement": "Cmaxss", "setting": "[1]; Study-2, 30 mg QD, Day 14", "result": "897.8 (35.4) ng/mL"}, {"measurement": "Vzss/F", "setting": "[1]; Study-2, 30 mg QD, Day 14", "result": "64.8 (24.2) L"}, {"measurement": "CLss/F", "setting": "[1]; Study-2, 45 mg QD, Day 14", "result": "2.65 (36.9) L/h"}, {"measurement": "Cmaxss", "setting": "[1]; Study-2, 45 mg QD, Day 14", "result": "1114 (27.7) ng/mL"}, {"measurement": "Vzss/F", "setting": "[1]; Study-2, 45 mg QD, Day 14", "result": "74.5 (27.9) L"}, {"measurement": "CLss/F", "setting": "[1]; Study-2, 60 mg QD, Day 14", "result": "2.00 (32.5) L/h"}, {"measurement": "Cmaxss", "setting": "[1]; Study-2, 60 mg QD, Day 14", "result": "1957 (30.2) ng/mL"}, {"measurement": "Vzss/F", "setting": "[1]; Study-2, 60 mg QD, Day 14", "result": "56.7 (33.3) L"}, {"measurement": "CLss/F", "setting": "[1]; Study-2, 90 mg QD, Day 14", "result": "2.33 (19.7) L/h"}, {"measurement": "Cmaxss", "setting": "[1]; Study-2, 90 mg QD, Day 14", "result": "2355 (17.8) ng/mL"}, {"measurement": "Vzss/F", "setting": "[1]; Study-2, 90 mg QD, Day 14", "result": "68.0 (23.9) L"}, {"measurement": "AUC(0-t)", "setting": "[1]; 30 mg, Study-2, 30 mg BID, Day 14, read-out: AUC(0–10)", "result": 10600, "unit": "ng·h/mL"}, {"measurement": "AUC(0-t)", "setting": "[1]; 30 mg, Study-2, 30 mg QD, Day 14, read-out: AUC(0–24)", "result": 14100, "unit": "ng·h/mL"}, {"measurement": "AUC(0-t)", "setting": "[1]; 30 mg, Study-2, 30 mg QD, Day 14, read-out: AUC(0–t)", "result": 24900, "unit": "ng·h/mL"}, {"measurement": "AUC(0-t)", "setting": "[1]; 45 mg, Study-2, 45 mg QD, Day 14, read-out: AUC(0–24)", "result": 17000, "unit": "ng·h/mL"}, {"measurement": "AUC(0-t)", "setting": "[1]; 45 mg, Study-2, 45 mg QD, Day 14, read-out: AUC(0–t)", "result": 30100, "unit": "ng·h/mL"}, {"measurement": "AUC(0-t)", "setting": "[1]; 60 mg, Study-2, 60 mg QD, Day 14, read-out: AUC(0–24)", "result": 30000, "unit": "ng·h/mL"}, {"measurement": "AUC(0-t)", "setting": "[1]; 60 mg, Study-2, 60 mg QD, Day 14, read-out: AUC(0–t)", "result": 51600, "unit": "ng·h/mL"}, {"measurement": "AUC(0-t)", "setting": "[1]; 90 mg, Study-2, 90 mg QD, Day 14, read-out: AUC(0–24)", "result": 38600, "unit": "ng·h/mL"}, {"measurement": "AUC(0-t)", "setting": "[1]; 90 mg, Study-2, 90 mg QD, Day 14, read-out: AUC(0–t)", "result": 67600, "unit": "ng·h/mL"}, {"measurement": "MRT", "setting": "[1]; Study-2, 30 mg QD, Day 14", "result": 24.9, "unit": "h"}, {"measurement": "half-life", "setting": "[1]; Study-2, 30 mg QD, Day 14", "result": 24.6, "unit": "h"}, {"measurement": "Tmax", "setting": "[1]; Study-2, 30 mg QD, Day 14, median (range), read-out: tmax", "result": 4, "unit": "h"}, {"measurement": "MRT", "setting": "[1]; Study-2, 45 mg QD, Day 14", "result": 25.1, "unit": "h"}, {"measurement": "half-life", "setting": "[1]; Study-2, 45 mg QD, Day 14", "result": 28.5, "unit": "h"}, {"measurement": "Tmax", "setting": "[1]; Study-2, 45 mg QD, Day 14, median (range), read-out: tmax", "result": 4, "unit": "h"}, {"measurement": "MRT", "setting": "[1]; Study-2, 60 mg QD, Day 14", "result": 24.2, "unit": "h"}, {"measurement": "half-life", "setting": "[1]; Study-2, 60 mg QD, Day 14", "result": 24.6, "unit": "h"}, {"measurement": "Tmax", "setting": "[1]; Study-2, 60 mg QD, Day 14, median (range), read-out: tmax", "result": 3.5, "unit": "h"}, {"measurement": "MRT", "setting": "[1]; Study-2, 90 mg QD, Day 14", "result": 24.7, "unit": "h"}, {"measurement": "half-life", "setting": "[1]; Study-2, 90 mg QD, Day 14", "result": 24.6, "unit": "h"}, {"measurement": "Tmax", "setting": "[1]; Study-2, 90 mg QD, Day 14, median (range), read-out: tmax", "result": 4, "unit": "h"}, {"measurement": "Tmax", "setting": "[1]; Study-2, day 14, fed, range across groups, read-out: time to peak plasma concentration", "result": "3.5 to 4", "unit": "h"}, {"measurement": "LF", "setting": "[1]; Study-2, 30 mg QD, Day 14", "result": "1.275 (16.7)"}, {"measurement": "LF", "setting": "[1]; Study-2, 45 mg QD, Day 14", "result": "1.028 (26.4)"}, {"measurement": "LF", "setting": "[1]; Study-2, 60 mg QD, Day 14", "result": "1.160 (31.8)"}, {"measurement": "LF", "setting": "[1]; Study-2, 90 mg QD, Day 14", "result": "1.127 (25.9)"}, {"measurement": "Dose proportionality of Cmaxss (ng/mL): Dose (beta), Estimate", "setting": "[1]; [5]", "result": 0.96}, {"measurement": "Dose proportionality of Cmaxss (ng/mL): Intercept, Estimate", "setting": "[1]; [5]", "result": 3.52}, {"measurement": "Deaths", "setting": "[2]; 5 mg, 14 days", "result": "0 n (%)"}, {"measurement": "Deaths", "setting": "[2]; 8 mg, 14 days", "result": "0 n (%)"}, {"measurement": "Deaths", "setting": "[2]; 15 mg, 14 days (psoriasis cohort)", "result": "0 n (%)"}, {"measurement": "Deaths", "setting": "[2]; seletalisib total", "result": "0 n (%)"}, {"measurement": "glucose handling versus baseline (oral glucose tolerance test)", "setting": "[2]; in vivo", "result": "no significant alteration"}, {"measurement": "neutrophil counts", "setting": "[2]; in vivo", "result": "Modest reductions"}, {"measurement": "number of AEs of potential GI disturbance", "setting": "[2]; in vivo", "result": "Six"}, {"measurement": "number of moderate AEs", "setting": "[2]; in vivo", "result": "three"}, {"measurement": "route of elimination", "setting": "[3]", "result": "primarily eliminated by combined hepatic metabolism and biliary excretion"}, {"measurement": "inhibition of basophil degranulation", "setting": "[4]", "result": "80.3–92.5%"}]}]}
